Data set [1] has as its system Hamsters. The data set can be described thus: Bleomycin-induced pulmonary toxicity in hamsters: lung hydroxyproline content. Format: in vivo, hamster. The following applies: pre-treatment i.p. (ALC 200 mg/kg or saline, daily 1 week)/intratracheal instillation (bleomycin 1 unit or saline); day 22. Here is the method:
(§1) Hamsters weighing 120 g were treated with bleomycin (1 unit) by the intratracheal route (IT) or with an equivalent volume of saline. In addition, the animals were pre-treated with ALC (200 mg/kg) or saline intraperitoneally just before the instillation of bleomycin, followed by daily injections for 1 week. The animals were allowed 3 weeks to recover prior to taking the tissue samples. At the time tissue samples were taken (day 22), one lung of each animal was prepared for histological investigation and the other lung for quantitative determination of hydroxyproline.
The hydroxyproline content (one of the main constituents of collagen) was measured using the known Woessner method. Lung samples were homogenised, hydrolysed with NaOH, and then left to oxidise before adding Erlich aldehyde reagent. Duplicate aliquots of each sample were assayed by spectrophotometry and compared with a standard calibration curve obtained with purified hydroxyproline. The hydroxyproline content (HYP) is expressed as mg/lung.

For data set [2], the system named is Hamsters. The data set can be described thus: Bleomycin-induced pulmonary toxicity in hamsters: lung histology. The conditions noted are these: pre-treatment/IT instillation; day 22. In kind it is in vivo, hamster. Here is the method: as §1
The lungs were fixed by insufflation at 20 cm of H2O ex vivo with 10% formaldehyde in PBS (pH 7), embedded in paraffin, sectioned and stained with haematoxylin/eosin. Sections with similar orientation from the portion of the pulmonary lobe—upper, middle and lower, respectively—were examined to verify the presence and degree of inflammatory infiltrate, oedema and interstitial and intra-alveolar fibrosis.

Data set [3] deals with L-MM3 murine breast cancer cells. The data set can be described thus: L-MM3 murine breast cancer in Balb/c mice, taxol and PLC, Experiment A (schedule A).
Experimental: (§2) Cell cultures of L-MM3 murine breast cancer cells were used, cultured at 37° C. in plastic flasks in a humidified atmosphere with 5% CO^2. The cells were grown in DMEM supplemented with 10% FCS and in the presence of 2 mM L-glutamine and 80 μg/ml of gentamicin. The subconfluent cells were collected during the exponential growth phase using trypsin-EDTA and re-suspended in DMEM. They were then injected subcutaneously in female Balb/c mice weighing 20 g at a density of 4×10^5.
(§3) The tumour was measured with a calliper three times a week as soon as it became palpable. The tumour mass is calculated on the basis of the measurements of the two dimensions (length and width), expressed in mm, according to the following formula: [formula]
(§4) If we consider conventionally a tumour density equal to 1, the result is that the tumour volume is equal to (mm^3=mg).
(§5) The agent is weighed, solubilised in the specific vehicle (12 mg/ml), and stored at +4° C., sheltered from the light. At the time of use, it is diluted 1:4 with saline solution in phosphate buffer (PBS, SIGMA) and injected.
(§6) Cremophor is diluted 1:1 with ethanol and stored sheltered from the light. On the day of treatment it is diluted 1:4 with PBS.
The test system is the same in data set [4]. The data set can be described thus: L-MM3 murine breast cancer in Balb/c mice, taxol and PLC, Experiment B (schedule B).
Experimental: as §2, §3, §4, §5, §6

In the case of “bleomycin [Saline/bleomycin, reference compound]”, the “hydroxyproline content (HYP)” value with Hamsters [1] is 1.831 mg/lung. The “lung histology (in words)” value in the data set on Hamsters [2] is “dense fibrosis, alveolar atelectasis and oedema”.

Take `CCC(=O)O[C@H](CC(=O)[O-])C[N+](C)(C)C` [PLC, propionyl L-carnitine]: in data set [3], the “Animals with tumours/total number of animals, Day 22” value was 6/12; the “Animals with tumours/total number of animals, Day 25” value is recorded as 9/12; the “Animals with tumours/total number of animals, Day 28” value is given as 11/12; the “Animals with tumours/total number of animals, Day 36” value is 12/12. Also, in data set [3], the “Animals with tumours/total number of animals, Day 46” value is given as 12/12; the “Tumour size, Day 22” value is reported as 0.6 ± 0.3; the “Tumour size, Day 25” value is 1.2 ± 0.38; the “Tumour size, Day 28” value was found to be 3 ± 0.4. In addition, in data set [3], the “Tumour size, Day 36” value was determined as 9.5 ± 0.8 and the “Tumour size, Day 46” value came out at 15 ± 1.1. The “Tumour size, Day 0” value in data set [3] (day of inoculation) worked out at 0. For the same molecule, in data set [3] (taxol 30 mg/kg i.p. days 15,17,19,21, PLC 100 mg/kg s.c. days 12-24), the “Animals with tumours/total number of animals, Day 19” value was 4/12. In data set [4], the “Animals with tumours/total animals, Day 45” value was 8/10; the “Animals with tumours/total animals, Day 59” value was 8/10; the “Tumour size, Day 26” value was found to be 0.4 ± 0.3; the “Tumour size, Day 31” value worked out at 0.5 ± 0.3. Besides, in data set [4], the “Tumour size, Day 37” value came out at 1.3 ± 0.6; the “Tumour size, Day 41” value was found to be 2.2 ± 1.0; the “Tumour size, Day 45” value was determined as 3.9 ± 1.2; the “Tumour size, Day 53” value amounted to 5.6 ± 1.4. For the same molecule, in data set [4], the “Tumour size, Day 59” value amounted to 8 ± 2.2. The “Tumour size, Day 0” value in data set [4] (day of inoculation) is on record as 0. For the same molecule, the “Animals with tumours/total animals, Day 31” value in data set [4] (taxol 30 mg/kg i.p. days 8,10,12,14, PLC 100 mg/kg s.c. to day 59) is 3/10.

The values above are taken from patent US6610699B2, “Use of L-carnitine and its alkanoyl derivatives in the preparation of medicaments with anticancer activity” (Sigma-Tau Industrie Farmaceutiche Riunite S.p.A., priority 1998, dated 2003).
